Columns and labels:
κ-opioid receptor [1] = target: T1, κ-opioid receptor (Homo sapiens (Human), UniProt P41145); assay: κ-opioid receptor [35S]GTPγS functional assay, HEK-293 or CHO cells; format: biochemical; details: for Emax: relative to U69,593, HEK-293 or CHO cells
Description: (§1) κ-Opioid Receptor Functional Assay Procedures: Functional [^35S]GTPγS binding assays were conducted as follows. κ opioid receptor membrane solution was prepared by sequentially adding final concentrations of 0.026 μg/μl κ membrane protein (in-house), 10 μg/mL saponin, 3 μM GDP and 0.20 nM [^35S]GTPγS to binding buffer (100 mM NaCl, 10 mM MgCl2, 20 mM HEPES, pH 7.4) on ice. The prepared membrane solution (190 μl/well) was transferred to 96-shallow well polypropylene plates containing 10 μl of 20× concentrated stock solutions of agonist prepared in DMSO. Plates were incubated for 30 min at a temperature of about 25° C. with shaking. Reactions were terminated by rapid filtration onto 96-well Unifilter GF/B filter plates (Perkin Elmer, Shelton, Conn.) using a 96-well tissue harvester (Packard) and followed by three filtration washes with 200 μl ice-cold binding buffer (10 mM NaH2PO4, 10 mM Na2HPO4, pH 7.4). Filter plates were subsequently dried at 50° C. for 2-3 hours. Fifty μl/well scintillation cocktail (Perkin Elmer, Shelton, Conn.) was added and plates were counted in a Packard Top-Count for 1 min/well.
(§2) κ-Opioid Receptor Functional Data: κ GTP EC50 is the concentration of a compound providing 50% of the maximal response for the compound at a κ receptor.
(§3) κ GTP Emax (%) is the maximal effect elicited by a compound relative to the effect elicited by U69,593.
In TABLE 2, activity response of certain Compounds of the Invention to the μ-, δ- and κ-opioid receptors was determined as described above for functional assays using HEK-293 or CHO cells.

μ-opioid receptor [2] = target: T2, μ-opioid receptor (Homo sapiens (Human), UniProt P35372); assay: μ-opioid receptor radioligand dose-displacement binding assay ([3H]-diprenorphine); details: binding affinity, [3H]-diprenorphine displacement; read-out: Ki (nM) Opioid Receptor μ
Description: μ-Opioid Receptor Binding Assay Procedures: Radioligand dose-displacement binding assays for μ-opioid receptors used 0.3 nM [^3H]-diprenorphine (Perkin Elmer, Shelton, Conn.), with […] membrane protein/well in a final volume of 500 μl binding buffer (10 mM MgCl2, 1 mM EDTA, 5% DMSO, 50 mM HEPES, pH 7.4). Reactions were carried out in the absence or presence of increasing concentrations of unlabeled naloxone. All reactions were conducted in 96-deep well polypropylene plates for 2 hours at room temperature. Binding reactions were terminated by rapid filtration onto 96-well Unifilter GF/C filter plates (Perkin Elmer, Shelton, Conn.), presoaked in 0.5% polyethylenimine using a 96-well tissue harvester (Perkin Elmer, Shelton, Conn.) followed by performing three filtration washes with 500 μl of ice-cold binding buffer. Filter plates were subsequently dried at 50° C. for 2-3 hours. BetaScint scintillation cocktail (Perkin Elmer, Shelton, Conn.) was added (50 μl/well), and plates were counted using a Packard Top-Count for 1 min/well. The data were analyzed using the one-site competition curve fitting functions in GraphPad PRISM™ v. 3.0 or higher (San Diego, Calif.), or an in-house function for one-site competition curve-fitting.

κ-opioid receptor [3] = target: T1, κ-opioid receptor; assay: κ-opioid receptor radioligand dose-displacement binding assay ([3H]-U69,593); details: binding affinity, [3H]-U69,593 displacement
Description: κ-Opioid Receptor Binding Assay Procedures: Membranes from HEK-293 cells, CHO or U-2 OS cells expressing the recombinant human kappa opioid receptor (κ) were prepared by lysing cells in ice cold hypotonic buffer (2.5 mM MgCl2, 50 mM HEPES, pH 7.4) (10 mL/10 cm dish) followed by homogenization with a tissue grinder/Teflon pestle. Membranes were collected by centrifugation at 30,000×g for 15 min at 4° C. and pellets were resuspended in hypotonic buffer to a final concentration of 1-3 mg/mL. Protein concentrations were determined using the BioRad protein assay reagent with bovine serum albumen as standard, Aliquots of κ receptor membranes were stored at […].
Radioligand dose displacement assays used 0.4 nM [^3H]-U69,593 (GE Healthcare, Piscataway, N.J.; 40 Ci/mmole) with 15 μg membrane protein (recombinant κ opioid receptor expressed in HEK 293 cells; in-house prep) in a final volume of 200 μl binding buffer (5% DMSO, 50 mM Trizma base, pH 7.4). Non-specific binding was determined in the presence of 10 μM unlabeled naloxone or U69,593. All reactions were performed in 96-well polypropylene plates for 1 hour at a temperature of about 25° C. Binding reactions were terminated by rapid filtration onto 96-well Unifilter GF/C filter plates (Perkin Elmer, Shelton, Conn.) presoaked in 0.5% polyethylenimine (Sigma). Harvesting was performed using a 96-well tissue harvester (Perkin Elmer, Shelton, Conn.) followed by five filtration washes with 200 μl ice-cold binding buffer. Filter plates were subsequently dried at 50° C. for 1-2 hours. Fifty μl/well scintillation cocktail (Perkin Elmer, Shelton, Conn.) was added and plates were counted in a Packard Top-Count for 1 min/well.

μ-opioid receptor [4] = target: T2, μ-opioid receptor; assay: μ-opioid receptor [35S]GTPγS functional assay, HEK-293 or CHO cells; format: biochemical; details: for Emax: relative to DAMGO, HEK-293 or CHO cells
μ-opioid receptor [5] = target: T2, μ-opioid receptor; assay: μ-opioid receptor [35S]GTPγS functional assay, U-2 OS cells; format: biochemical
Description: μ-Opioid Receptor Functional Assay Procedures: [^35S]GTPγS functional assays were conducted using freshly thawed μ-receptor membranes prepared in-house from a cell line expressing recombinant μ opioid receptor in a HEK-293, CHO or U-2 OS cell background, or purchased from a commercial source (Perkin Elmer, Shelton, Conn.; or DiscovRx, Fremont, Calif.). Assay reactions were prepared by sequentially adding the following reagents to binding buffer (100 mM NaCl, 10 mM MgCl2, 20 mM HEPES, pH 7.4) on ice (final concentrations indicated): membrane protein (0.026 mg/mL), saponin ([…]), GDP ([…]) and [^35S]GTPγS (0.20 nM; Perkin Elmer, Shelton, Conn.). The prepared membrane solution (190 μl/well) was transferred to 96-shallow well polypropylene plates containing 10 μl of 20× concentrated stock solutions of the agonist [D-Ala^2, N-methyl-Phe^4 Gly-ol^5]-enkephalin (DAMGO) prepared in dimethyl sulfoxide (DMSO). Plates were incubated for 30 min at about 25° C. with shaking. Reactions were terminated by rapid filtration onto 96-well Unifilter GF/B filter plates (Perkin Elmer, Shelton, Conn.) using a 96-well tissue harvester (Perkin Elmer, Shelton, Conn.) followed by three filtration washes with 200 μl of ice-cold wash buffer (10 mM NaH2PO4, 10 mM Na2HPO4, pH 7.4). Filter plates were subsequently dried at 50° C. for 2-3 hours. BetaScint scintillation cocktail (Perkin Elmer, Shelton, Conn.) was added (50 μl/well) and plates were counted using a Packard Top-Count for 1 min/well. Data were analyzed using the sigmoidal dose-response curve fitting functions in GraphPad PRISM v. 3.0, or an in-house function for non-linear, sigmoidal dose-response curve-fitting.
μ-Opioid Receptor Functional Data: μ GTP EC50 is the concentration of a compound providing 50% of the maximal response for the compound at a μ-opioid receptor.
μ GTP Emax (%) is the maximal effect elicited by a compound relative to the effect elicited by DAMGO, a standard μ agonist. Generally, the μ GTP Emax (%) value measures the efficacy of a compound to treat or prevent pain or other Conditions.
(§4) The following TABLE 3 provides results on the activity response of certain Compounds of the Invention at the μ- and κ-opioid receptors determined as described above using U-2 OS cells.

κ-opioid receptor [6] = target: T1, κ-opioid receptor; assay: κ-opioid receptor [35S]GTPγS functional assay, U-2 OS cells; format: biochemical
Description: as §1, §2, §3, §4

Row | Structure (SMILES) | EC50 (κ-opioid receptor [1]) [nM] | Emax (κ-opioid receptor [1]) [%] | Ki (μ-opioid receptor [2]) [nM] | Ki (κ-opioid receptor [3]) [nM] | EC50 (μ-opioid receptor [4]) [nM] | Emax (μ-opioid receptor [4]) [%] | EC50 (μ-opioid receptor [5]) [nM] | Emax (μ-opioid receptor [5]; relative to DAMGO, U-2 OS cells) [%] | EC50 (κ-opioid receptor [6]) [nM] | Emax (κ-opioid receptor [6]; relative to U69,593, U-2 OS cells) [%]
1 | NC(=O)C[C@H](NC(=O)c1cc2c([nH]c1=O)C[C@]13CCN(CC4CC4)[C@H](Cc4ccc(O)cc41)[C@@H]3C2)C(N)=O [Compound 26] | 8.87 ± 1.35 | 39 ± 2.08 | 0.71 ± 0.11 | 0.86 ± 0.23 | 7.54 ± 1.97 | 38 ± 1.15 | – | – | – | –
2 | NC(=O)[C@@H]1CCCN1C(=O)c1cc2c([nH]c1=O)C[C@]13CCN(CC4CC4)[C@H](Cc4ccc(O)cc41)[C@@H]3C2 [Compound 25, (S)-1-((6R,6aR,12aS)-15-(cyclopropylmethyl)-2-hydroxy-10-oxo-6,6a,7,10,11,12-hexahydro-5H-6,12a-(epiminoethano)naphtho[2,1-g]quinoline-9-carbonyl)pyrrolidine-2-carboxamide] | 4.42 ± 0.85 | 44.7 ± 2.73 | 0.41 ± 0.05 | 0.32 ± 0.06 | 4.87 ± 0.52 | 29.3 ± 1.45 | – | – | – | –
3 | NC(=O)c1cc2c([nH]c1=O)C[C@]13CCN(CC4CC4)[C@H](Cc4ccc(O)cc41)[C@@H]3C2 [Compound 7, (6R,6aR,12aS)-15-(cyclopropylmethyl)-2-hydroxy-10-oxo-6,6a,7,10,11,12-hexahydro-5H-6,12a-(epiminoethano)naphtho[2,1-g]quinoline-9-carboxamide] | 33.9 ± 3.73 | 31.3 ± 3.18 | 4.55 ± 1.26 | 0.19 ± 0.04 | > 20000 | – | – | – | – | –
4 | COc1ccc2c(c1)[C@]13CCN(Cc4ccccc4)[C@H](C2)[C@]1(O)Cc1cc(C(N)=O)c(=O)[nH]c1C3 [Compound 31, (6R,6aS,12aR)-15-benzyl-6a-hydroxy-2-methoxy-10-oxo-6,6a,7,10,11,12-hexahydro-5H-6,12a-(epiminoethano)naphtho[2,1-g]quinoline-9-carboxamide] | – | – | 5590 ± 696 | 1580 ± 308 | – | – | > 20000 | 10.7 ± 5.21 | – | –
5 | CC(C)C[C@H](NC(=O)c1cc2c([nH]c1=O)C[C@]13CCN(CC4CC4)[C@H](Cc4ccc(O)cc41)[C@@H]3C2)C(N)=O [Compound 24, (6R,6aR,12aS)—N—((S)-1-amino-4-methyl-1-oxopentan-2-yl)-15-(cyclopropylmethyl)-2-hydroxy-10-oxo-6,6a,7,10,11,12-hexahydro-5H-6,12a-(epiminoethano)naphtho[2,1-g]quinoline-9-carboxamide] | 2.54 ± 0.55 | 23 ± 2.04 | 3.95 ± 1.84 | 0.96 ± 0.1 | 5.2 ± 1.35 | 37 ± 7.02 | – | – | – | –
6 | NC(=O)[C@H](Cc1ccccc1)NC(=O)c1cc2c([nH]c1=O)C[C@]13CCN(CC4CC4)[C@H](Cc4ccc(O)cc41)[C@@H]3C2 [Compound 23, (6R,6aR,12aS)—N—((S)-1-amino-1-oxo-3-phenylpropan-2-yl)-15-(cyclopropylmethyl)-2-hydroxy-10-oxo-6,6a,7,10,11,12-hexahydro-5H-6,12a-(epiminoethano)naphtho[2,1-g]quinoline-9-carboxamide] | 8.35 ± 2.25 | 25.7 ± 4.18 | 1.86 ± 0.65 | 0.31 ± 0.05 | 3.19 ± 0.46 | 41.3 ± 5.04 | – | – | – | –
7 | CN1CC[C@]23Cc4[nH]c(=O)c(C(N)=O)cc4C[C@@]2(O)[C@H]1Cc1ccc(O)cc13 [Compound 29, (6R,6aS,12aR)-15-(methyl)-2,6a-dihydroxy-10-oxo-6,6a,7,10,11,12-hexahydro-5H-6,12a-(epiminoethano)naphtho[2,1-g]quinoline-9-carboxamide] | – | – | 651 ± 101 | 25.3 ± 4.86 | – | – | – | – | – | –
8 | COC(=O)c1cc2c([nH]c1=O)C[C@]13CCN(Cc4ccccc4)[C@H](Cc4ccc(OC)cc41)[C@]3(O)C2 [Compound 30, (6R,6aS,12aR)-methyl 15-benzyl-6a-hydroxy-2-methoxy-10-oxo-6,6a,7,10,11,12-hexahydro-5H-6,12a-(epiminoethano)naphtho[2,1-g]quinoline-9-carboxylate] | – | – | 3940 ± 860 | 599 ± 90 | – | – | – | – | > 20000 | 1

From patent US8980906B2, “Pyridonemorphinan analogs and biological activity on opioid receptors” (Purdue Pharma L.P., priority 2012, dated 2015)
